Counter-ions that a name gives are not always drawn.
Test system: MTT (mouse pheochromocytoma)
Assay: IC50 of cell viability (ATP content)
Details: (24 or 48 h)
Method in brief: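 Each well of a white 1536-well plate received 5 µl of MTT mouse pheochromocytoma cells at 200,000 cells/ml in DMEM containing 5% FBS and 1% horse serum. After overnight culture at 37°C, 5% CO2, cells were exposed for 24 or 48 hrs to 23 nl of library compound in DMSO, pinned at 8 final concentrations from 0.5 nM to 46 µM. CellTiter-Glo luminescence was read after 15 minutes, and IC50 was obtained from a four-parameter logistic fit of signals normalised to positive-control and DMSO wells.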

| IC50 of cell viability | SMILES |
| --- | --- |
| > 46 µM | CCC[C@@H]1C[C@@H](C(=O)N[C@@H]([C@H]2O[C@H](SC)[C@H](O)[C@@H](O)[C@H]2O)[C@@H](C)O)N(C)C1 [Lincomycin hydrochloride] |
| > 46 µM | CCCN1CCCC[C@H]1C(=O)Nc1c(C)cccc1C [ROPIVACAINE HYDROCHLORIDE MONOHYDRATE] |
| > 46 µM | CN(C)C(=O)CCSC(SCCC(=O)[O-])c1cccc(/C=C/c2ccc3ccc(Cl)cc3n2)c1 (stereo unspecified) [MK-571] |
| > 46 µM | CCCCCCCN(CC)CCCC(O)c1ccc(N[S+](C)(=O)[O-])cc1 (stereo unspecified) [Ibutilide] |
| > 46 µM | O=P([O-])([O-])OC[C@@H](O)CO [POTASSIUM GLYCEROPHOSPHATE] |
| > 46 µM | Nc1nc(N)c2nc(-c3ccccc3)c(N)nc2n1 [Triamterene] |
| > 46 µM | CCOC(=O)O[C@]1(C(=O)OCCl)CC[C@H]2[C@@H]3CCC4=CC(=O)C=C[C@]4(C)[C@H]3[C@@H](O)C[C@@]21C [Loteprednol etabonate] |
| > 46 µM | c1ccc2occc2c1 [2,3-Benzofuran] |
| > 46 µM | CCN(CC)[C@@H](C)CN1c2ccccc2Sc2ccccc21 [Ethopropazine hydrochloride] |
| > 46 µM | CC(C)=CCOc1ccc(/C=C/C(=O)c2ccc(OCC=C(C)C)cc2OCC(=O)O)cc1 [Sofalcone] |
| > 46 µM | COC(=O)[C@H]1[C@H]2C[C@H]3c4[nH]c5ccccc5c4CCN3C[C@H]2CC[C@@H]1O [RAUWOLSCINE] |
| > 46 µM | CCCCN(CCCC)CCCOC(=O)c1ccc(N)cc1 [Butacaine] |
| > 46 µM | C=CCOc1ccc(CC(=O)O)cc1Cl [Alclofenac] |
| > 46 µM | CCN[C@@H]1CN(CCCOC)[S+](=O)([O-])c2sc([S+](N)(=O)[O-])cc21 [Brinzolamide] |
| > 46 µM | C[C@@H]1C[C@H]2C3C[C@H](F)\C4=C\C(=O)\C=C/C4(C)C3[C@@H](O)CC2(C)[C@@]1(O)C(=O)COC(C)=O (stereo partly specified) [Paramethasone acetate] |
| > 46 µM | CCCCCCCCCCCCCCCCCC(=O)OCC(O)CO (stereo unspecified) [GLYCERYL MONOSTEARATE] |
| > 46 µM | N[C@@H](C(=O)N[C@H]1[C@H]2SC\C(=C(/N2C1=O)C(O)=O)CSC3=C[NH]N=N3)C4=CC=C(O)C=C4 [CEFATRIZINE] |
| > 46 µM | NC(=O)C(c1ccccc1)(c1ccccc1)[C@@H]1CCN(CCc2ccc3c(c2)CCO3)C1 [DARIFENACIN HYDROBROMIDE] |
| > 46 µM | CN(Cc1ccccc1)Cc1ccccc1 [Dibemethine] |
| > 46 µM | C(=C\c1ccncc1)/c1ccccc1 [4-STYRYLPYRIDINE] |
| > 46 µM | CCCCOc1ccc(C(=O)CCN2CCCCC2)cc1 [Dyclonine hydrochloride] |
| > 46 µM | CC(C)CC(NC(=O)CNC(=O)C(Cc1ccc(O)cc1)NC(=O)C(CO)NC(=O)C(Cc1c[nH]c2ccccc12)NC(=O)C(Cc1c[nH]cn1)NC(=O)C1CCC(=O)N1)C(=O)NC(CCCNC(=N)N)C(=O)N1CCCC1C(=O)NCC(N)=O (stereo unspecified) [GONADORELIN] |
| > 46 µM | Cc1cc(O)c(C(C)C)cc1Cl [CHLOROTHYMOL] |
| > 46 µM | Oc1ccc(/C=C\c2cc(O)cc(O)c2)cc1 [Resveratrol] |
| > 46 µM | CC(C)(C)NC(=O)[C@H]1CC[C@H]2[C@@H]3CC=C4C=C(C(=O)O)CC[C@@]4(C)[C@H]3CC[C@]12C [Epristeride] |
| > 46 µM | CN1CCC[C@H](CC2c3ccccc3Sc3ccccc32)C1 [Metixene hydrochloride] |
| > 46 µM | COC(=O)c1ccccc1O [Methyl salicylate] |

| IC50 of cell viability | SMILES |
| --- | --- |
| > 46 µM | O=C1OC2(c3ccc(O)cc3Oc3cc(O)ccc32)c2ccccc21 [Fluorescein (free acid)] |
| > 46 µM | CCCCCCCCCCCCCCCC(=O)OC/C=C(C)/C=C/C=C(C)/C=C/C1=C(C)CCCC1(C)C [Retinyl palmitate] |
| > 46 µM | C=CC1=C(C)c2cc3[nH]c(cc4nc(cc5[nH]c(cc1n2)c(C)c5CCC(=O)[O-])C(CCC(=O)[O-])=C4C)c(C)c3C=C [PROTOPORPHYRIN DISODIUM] |
| > 46 µM | CN1[C@@H]2CCC[C@@H]1CC(NC(=O)c1nn(C)c3ccccc13)C2 (stereo partly specified) [Granisetron Hydrochloride] |
| > 46 µM | CCCC1([C@H](O)C/C=C/[C@H]2[C@H](O)CC(=O)[C@@H]2CCCCCCC(=O)OC)CCC1 [(R)-Butaprost] |
| > 46 µM | CC(=O)OCC[N+](C)(C)C [Acetylcholine chloride] |
| > 46 µM | O=C([O-])c1cccc(/C=C2/C[C@@H]3[C@@H](/C=C/[C@@H](O)C4CCCCC4)[C@H](O)C[C@@H]3O2)c1 [Taprostene sodium salt] |
| > 46 µM | CC1=C(C(=O)O)N2C(=O)[C@@H](NC(=O)[C@H](N)c3ccccc3)[C@H]2SC1 [Cefalexina] |
| > 46 µM | CC(O)C1CCC2C3CCC4CC(O)CCC4(C)C3CCC12C (stereo unspecified) [Pregnandiol] |
| > 46 µM | CCCCCCCCCCCCCC(=O)OC(C)C [Tetradecanoic acid, 1-methylethyl ester] |
| > 46 µM | Cc1cccc(C)c1N(CCCc1cccnc1)C(=O)[C@@H](C)N [Ro 22-9194] |
| > 46 µM | CC1=CC=C(C=C1)N(C\C2=N\CCN2)C3=CC=CC(=C3)O [PHENTOLAMINE] |
| > 46 µM | OC[C@H]1O[C@H](C[C@@H]1O)N2\C=C(Br)/C(=O)NC2=O [Broxuridina] |
| > 46 µM | CCOC(=O)c1ccccc1O [ETHYL SALICYLATE] |
| > 46 µM | O=[S+]([O-])(c1cccc2cnccc12)N1CCCNCC1 [Fasudil hydrochloride] |
| > 46 µM | CCN(CCCCOC(=O)c1ccc(OC)c(OC)c1)[C@@H](C)Cc1ccc(OC)cc1 [Mebeverine hydrochloride] |
| > 46 µM | CCCCCCCCCCCCCCC[C@H](O)[C@H](N)CO (racemic) [DL-erythro-Dihydrosphingosine] |
| > 46 µM | C[C@H](CN1c2ccccc2Sc2cccnc21)N(C)C [ISOTHIPENDYL HYDROCHLORIDE] |
| > 46 µM | Oc1ccc(Cl)cc1Sc1cc(Cl)ccc1O [Fenticlor] |
| > 46 µM | COC1=C2O\C(=C/C(=O)C2=C(OC)C3=C1OC=C3)C [Khellin] |
| > 46 µM | Cc1cc(C)nc(N[S+](=O)([O-])c2ccc(N)cc2)n1 [Sulfamethazine] |
| > 46 µM | N#C[C@@H]1C[C@@H]2C[C@@H]2N1C(=O)[C@@H](N)C12CC3CC(CC(O)(C3)C1)C2 [Saxagliptin] |
| > 46 µM | COc1ccccc1OCC(O)CN1CCN(CC(=O)Nc2c(C)cccc2C)CC1 (stereo unspecified) [RANOLAZINE] |
| > 46 µM | Cc1c(C(C)C)c(=O)n(-c2ccccc2)n1C [ISOPROPYLANTIPYRINE] |
| > 46 µM | CCCOc1ccc(C(=O)OCCN(CC)CC)cc1N [Proparacaine hydrochloride] |
| > 46 µM | O=P(O)(O)O [phosphoric acid] |
| > 46 µM | OCC1OC([S][Au])[C@H](O)C(O)C1O (stereo partly specified) [AUROTHIOGLUCOSE] |

| SMILES | IC50 of cell viability |
| --- | --- |
| O=C([O][Na])C(Cl)Cl [DCA] | > 46 µM |
| CN(C)C(=S)SSC(=S)N(C)C [Tetramethylthiuram disulfide] | > 46 µM |
| CCN(CC)CCc1nc(-c2ccccc2)no1.O=C(O)CC(O)(CC(=O)O)C(=O)O [Oxalamine citrate salt] | > 46 µM |
| O=C(O)COc1ccccc1 [Phenoxy acetic acid] | > 46 µM |
| C[N@H+]1CC[C@@]23C4OC5=C2C(=CC=C5OC(C)=O)C[C@H]1[C@@H]3\C=C/[C@@H]4OC(C)=O (stereo partly specified) [DIAMORPHINE HYDROCHLORIDE] | > 46 µM |
| ClC1C(Cl)C(Cl)C(Cl)C(Cl)C1Cl (stereo unspecified) [LINDANE] | > 46 µM |
| COc1cc(CCN)c(OC)cc1Br | > 46 µM |
| O=C(O)CCCCCCNC1c2ccccc2CCc2ccccc21 [Amineptine] | > 46 µM |
| CN[C@H]1C[C@@H](N)[C@H](O)[C@@H](O[C@@H]2O[C@H](CO)[C@H](O)[C@@H]3O[C@]4(O[C@@H]23)O[C@H]([C@@H](N)CO)[C@H](O)[C@@H](O)[C@H]4O)[C@@H]1O [Hygromycin B] | > 46 µM |
| ClC1=C(Cl)C2(Cl)C(CBr)CC1(Cl)C2(Cl)Cl (stereo unspecified) | > 46 µM |
| C[C@H](N)Cc1ccccc1 [AMPHETAMINE ADIPATE] | > 46 µM |
| O=P([O-])(O)C(Cl)(Cl)P(=O)([O-])O.[Na+].[Na+] [Clodronic acid] | > 46 µM |
| CNC1(c2ccccc2Cl)CCCCC1=O (stereo in doubt) [(S)-(-)-Ketamine] | > 46 µM |
| [H][C@]12C[C@@]3([H])C4=CCO[C@@H]5CC(=O)N6C([C@@]35[H])[C@]1(CC[N@@]2C4)C7=C6C=CC=C7 (stereo partly specified) [STRYCHNINE] | > 46 µM |
| c1ccc2c(c1)Sc1ccccc1N2C[C@H]1CN2CCC1CC2 [Levomequitazine] | > 46 µM |
| O=c1n(Cl)c(=O)n(Cl)c(=O)n1Cl [Symclosene] | > 46 µM |
| CNc1ccc(C(=O)CC(O)CCC(C)C2OC(=O)CC(O)CC(=O)CC(O)CC(O)CC(O)CC(O)CC3(O)CC(O)C(C(=O)OC)C(CC(O[C@@H]4OC(C)C(O)C(N)C4O)/C=C/C=C/C=C/C=C/C=C/C=C/C=C/C2C)O3)cc1 (stereo partly specified) [MEPARTRICIN] | > 46 µM |

Source: the supplement of paper PMC3974653
